Data: patent US20260091026A1, “METHODS OF TREATING INFLAMMATORY DISEASES” (INTERLINE THERAPEUTICS, INC., priority 2023, published 2026)

What was measured:
[1] = biological target: T1, GST-RIPK2 fusion protein (human RIPK2 amino acids 1-310) (Homo sapiens, UniProt O43353); experiment: RIPK2 binding competition assay (TR-FRET, Tracer 199); settings: displacement of Tracer 199 (10 nM), 45 min at 22° C.
T1 construct: made in house; host or cells: baculovirus-infected Sf9 cells
Procedure, shortened: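 GST-tagged human RIPK2 (aa 1-310, Sf9-expressed; 1 nM final) competed against Alexa647 Tracer 199 (10 nM) with Tb anti-GST antibody (0.5 nM) in Tris pH 7.5/MgCl2/DTT buffer, 45 min at 22 °C. Read-out was the 665/620 nm emission ratio, normalized to no-inhibitor (0%) and no-enzyme (−100%) controls.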

[2] = biological target: T2, RIPK2 (KD)/XIAP (BIR2) (Homo sapiens, UniProt O43353); experiment: RIPK2-XIAP binding competition PPI assay (TR-FRET); settings: for Emax: read-out: PPI Amax; for IC50: GST-RIPK2 / His-XIAP (BIR2)-avi, 120 min at 23° C.
T2 construct: made in house; host or cells: baculovirus-infected Sf9 cells
T2 sequence (O43353 1-310): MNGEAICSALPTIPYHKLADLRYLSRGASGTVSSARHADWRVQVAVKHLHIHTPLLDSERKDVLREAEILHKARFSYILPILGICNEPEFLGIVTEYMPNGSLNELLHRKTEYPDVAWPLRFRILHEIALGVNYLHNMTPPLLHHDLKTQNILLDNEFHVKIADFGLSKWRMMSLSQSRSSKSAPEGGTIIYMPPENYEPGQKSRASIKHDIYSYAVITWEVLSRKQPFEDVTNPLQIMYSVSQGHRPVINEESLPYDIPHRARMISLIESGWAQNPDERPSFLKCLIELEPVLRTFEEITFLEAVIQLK
Procedure, shortened: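 TR-FRET competition between GST-RIPK2 (aa 1-310, 1 nM) and His-XIAP BIR2-avi (aa 152-231, 25 nM), both Sf9-expressed, detected with anti-His-XL665 and anti-GST-Tb in Tris pH 7.5 buffer with MgCl2, DTT and vanadate. Incubation was 120 min at 23 °C; the 665/520 nm ratio was normalized to no inhibitor (0%) and 50 nM GSK583 (−100%).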

[3] = tested on: THP1-Dual cells, NF-κB pathway (SEAP); experiment: THP-1 Dual cell SEAP assay (L18-MDP stimulated); assay type: cell-based; settings: Homo sapiens, 10 ng/mL L18-MDP, 20-24 h, SEAP readout, read-out: IFNγ THP1 IC50
Procedure, shortened: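 About 25,000 THP1-Dual cells per well were preincubated 30 min with serially diluted compound, then stimulated overnight (20-24 h, 37 °C) with 10 ng/mL L18-MDP (final). NF-κB-driven SEAP in supernatant was read with QUANTI-Blue at OD 620-655 nm after 2 h; % inhibition versus DMSO/L18-MDP wells was fitted by non-linear regression to give IC50.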

[4] = 50 nM of GSK583 = -100% activity

T1 sequence (O43353 1-310): as above

Work on `COc1cc2ncc(-n3cc(NC(=O)C4CCCCC4)cn3)n2cc1S(=O)(=O)C(C)(C)C` [Example 164, N-(1-(6-(tert-butylsulfonyl)-7-methoxyimidazo[1,2-a]pyridin-3-yl)-1H-pyrazol-4-yl)cyclohexanecarboxamide] yielded an IC50 [1] of over 1000 nM, an Emax [2, 4] of at least 80% and an IC50 [2] of over 1000 nM. For the same compound, the IC50 [3] was over 2500 nM.

Compound `COc1cc2ncc(-n3cc(NC(=O)C4CCC(F)(F)CC4)cn3)n2cc1S(=O)(=O)C(C)(C)C` [Example 165, N-(1-(6-(tert-butylsulfonyl)-7-methoxyimidazo[1,2-a]pyridin-3-yl)-1H-pyrazol-4-yl)-4,4-difluorocyclohexane-1-carboxamide] has an IC50 [1] of over 1000 nM, an Emax [2, 4] of 55 to 80% and an IC50 [2] of over 1000 nM. For the same compound, the IC50 [3] was over 2500 nM.

`COc1cc2ncc(-n3cc(NC(C)=O)cn3)n2cc1S(=O)(=O)C(C)(C)C` [Example 155, N-(1-(6-(tert-butylsulfonyl)-7-methoxyimidazo[1,2-a]pyridin-3-yl)-1H-pyrazol-4-yl)acetamide] gave an IC50 [1] of over 1000 nM, an Emax [2, 4] of at most 30% and an IC50 [2] of over 1000 nM. It also gave an IC50 [3] of over 2500 nM.

In the case of `COc1cc2ncc(-n3cc(N4CCC(c5ccccc5)C4=O)cn3)n2cc1S(=O)(=O)C(C)(C)C` (single isomer, unassigned) [Example 182, (R)- or (S)-1-(1-(6-(tert-butylsulfonyl)-7-methoxyimidazo[1,2-a]pyridin-3-yl)-1H-pyrazol-4-yl)-3-phenylpyrrolidin-2-one], the IC50 [1] is reported as over 1000 nM, the “PPI Amax” value [2, 4] is reported as “C (Amax of 55%>C>30)” and the IC50 [2] is reported as over 1000 nM. The IC50 [3] was over 2500 nM.

Work on `COc1cc2ncc(-n3cc(NC(=O)C4CC4)cn3)n2cc1S(=O)(=O)C(C)(C)C` [Example 163, N-(1-(6-(tert-butylsulfonyl)-7-methoxyimidazo[1,2-a]pyridin-3-yl)-1H-pyrazol-4-yl)cyclopropanecarboxamide] yielded an IC50 [1] of over 1000 nM, an Emax [2, 4] of at most 30% and an IC50 [2] of over 1000 nM. The IC50 [3] was over 2500 nM.

In the case of `COc1cc2ncc(-n3cc(NC(=O)Cc4ccccc4)cn3)n2cc1S(=O)(=O)C(C)(C)C` [Example 160, N-(1-(6-(tert-butylsulfonyl)-7-methoxyimidazo[1,2-a]pyridin-3-yl)-1H-pyrazol-4-yl)-2-phenylacetamide], the IC50 [1] is reported as 200 to 500 nM, the Emax [2, 4] is reported as at least 80% and the IC50 [2] is reported as 100 to 1000 nM. The IC50 [3] was over 2500 nM.
